Results: patent publication US20250092086A1, “CELASTROL SALTS, CRYSTALLINE FORMS, AND USES THEREOF” (ERX Pharmaceuticals Inc., priority 2022, published 2025)
≈ marks a conversion by molar mass, not a printed value. Entries after “also recorded” stand apart in the source; their conditions may differ.

How the values were obtained:
Type in all cases: physicochemical
[1] = XRPD under temperature and relative humidity; details: for XRPD under temperature: impact / new crystalline phase: 25 to 100° C., RH set at 30%; for XRPD under relative humidity: impact / new crystalline phase: RH 10 to 80-90% at 40° C.; for Physical stability under the conditions tested (temperature and RH): XRPD, 25-100° C. and 10-90% RH at 40° C.
Description: Method 1: influence of temperature at ambient RH. RH was set at 30% in order to simulate a RH near from the ambient RH, and the temperature studied were 25-[…]-100° C.
Method 2: influence on RH at 40° C. The RH studied was at 10-30-80%.
These experiments studied the influence of temperature at ambient RH. RH was wet at 30% in order to simulate a RH near from the ambient RH, and the temperatures studied were 25-50-100° C.
These experiments studied the influence on RH at 40° C. The RH studied were 10-30-88%.
Using Method 1, the influence of temperature at ambient RH was studied. RH was set at 30% in order to simulate a RH near from the ambient RH, and the temperatures studied were 25-50-100° C. FIG. 24 provides the XRPD pattern representing the influence of temperature on Compound 1 Form I.
Using Method 2, the influence on RH at 40° C. was studied. The RH studied were 10-30-90%.
Using Method 1, the influence of temperature at ambient RH was studied. RH was set at 30% in order to simulate a RH near from the ambient RH. Temperature studied: 25-50-100° C.
Using Method 2, the influence on RH at 40° C. was studied at 10-30-90%.

[2] = Hygroscopicity (DVS), water sorption/desorption at 37° C.; details: for DVS (hygroscopicity): water sorption/desorption isotherms at 37° C., 0-95% RH
Description: The hygroscopicity experiments were carried out with a DVS Intrinsic from S.M.S. This technique is designed to accurately measure a sample's change in mass as it sorbs precisely controlled concentrations of water vapors in an air carrier gas. The method used for DVS experiments (at 37° C.) is summarized below. • Equilibrating 10 min at 50% RH • Decreasing to 0% RH in 60 min • Equilibrating 10 min at 0% RH • Increasing to 95% RH in 280 min • Equilibrating 10 min at 95% RH • Decreasing to 50% RH in 100 min • Equilibrating 20 min at 50% RH
(§1) The hygroscopic experiments were carried out with a DVS Intrinsic from S.M.S. This technique is designed to accurately measure a sample's change in mass as it sorbs precisely controlled concentrations of water vapors in an air carrier gas. All the methods used for DVS experiments are summarized below. It should be noticed that the temperature and relative humidity (RH) are pre-set according to the initial temperature and RH.
• Equilibrating 120 min at 50% RH • Decreasing to 0% RH in 60 min • Equilibrating 150 min at 0% RH • Increasing to 95% RH in 200 min • Equilibrating 360 min at 95% RH • Decreasing to 50% RH in 100 min • Equilibrating 150 min at 50% RH
as §1, with “hygroscopicity” for “hygroscopic”, “below, and it” for “below. It”
as §1, with “hygroscopicity” for “hygroscopic”

[3] = Solubility study of Compound I Form I in various solvents and temperatures
Description: The solubility of Compound 1 Form I was assessed in order to identify potential crystallization media. Compound 1 Form I was found very soluble in dichoromethane even at low temperature (10° C.).

## CC1=C(O)C(=O)C=C2C1=CC=C1[C@@]2(C)CC[C@@]2(C)[C@@H]3C[C@](C)(C(=O)O)CC[C@]3(C)CC[C@]12C [Compound 1 Form I, 3-hydroxy-9β,13α-dimethyl-2-oxo-24,25,26-trinoroleana-1(10),3,5,7-tetraen-29-oic acid]
[1]
  XRPD under temperature: impact / new crystalline phase: No impact
  XRPD under relative humidity: impact / new crystalline phase: No impact
  Physical stability under the conditions tested (temperature and RH): good stability
[1]; listed as Compound I Form I
  XRPD under temperature: impact / new crystalline phase: no new crystalline phase until 100 °C
  XRPD under relative humidity: impact / new crystalline phase: no new crystalline phase from 10 to 90% RH
[1]; listed as FI
  XRPD under temperature: impact / new crystalline phase: =>No new crystalline
  XRPD under relative humidity: impact / new crystalline phase: =>No new crystalline
[2]; DVS, 37° C.
  Hysteresis observed with the final mass at 50% RH: No hysteresis; also recorded: slight hysteresis
  Water uptake, water sorption/desorption isotherms: < 0.2 % w/w
[2]
  DVS (hygroscopicity): non hygroscopic; also recorded: non-hygroscopic
[2]; listed as Compound I Form I
  DVS (hygroscopicity): Non-hygroscopic
[2]; listed as FI
  DVS (hygroscopicity): Not hygroscopic
[3]; CH2Cl2/EtOH 20/80, organic solvent or mixture, CH2Cl2-2/EtOH 20/80, 40° C.
  solubility: 31 to 40 mg/mL (≈ 68.8 to 88.8 mM)
[3]; aqueous with cosolvent or surfactant or cyclodextrin, MeOH/Water 67/33/V, 10° C.
  solubility: < 2 mg/mL
[3]; aqueous with cosolvent or surfactant or cyclodextrin, Water/EtOH 50/50, 10° C.
  solubility: < 11 mg/mL
[3]; aqueous with cosolvent or surfactant or cyclodextrin, Water/EtOH 50/50, 25° C.
  solubility: < 11 mg/mL
[3]; dichoromethane, even at low temperature (10° C.)
  Solubility in dichoromethane: very soluble
[3]; dichoromethane/ethanol 50:50 (V/V), high temperature
  Solubility in dichoromethane/ethanol 50:50 (V/V) at high temperature: relatively good solubility
[3]; dichoromethane/ethanol 50:50 (V/V), low temperature
  Solubility in dichoromethane/ethanol 50:50 (V/V) at low temperature: low solubility
[3]; methanol, organic solvent or mixture, MeOH, 10° C.
  solubility: 8 to 11 mg/mL (≈ 17.8 to 24.4 mM)
[3]; methanol, organic solvent or mixture, MeOH, 50° C.
  solubility: ~36 mg/mL (≈ 79.9 mM)
[3]; organic solvent or mixture, CH2Cl2, 25° C.
  solubility: > 120 mg/mL
[3]; organic solvent or mixture, CH2Cl2/EtOH 10/90, 10° C.
  solubility: 11 to 15 mg/mL (≈ 24.4 to 33.3 mM)
[3]; organic solvent or mixture, CH2Cl2/EtOH 10/90, 40° C.
  solubility: < 25 mg/mL
[3]; organic solvent or mixture, CH2Cl2/EtOH 30/70, 10° C.
  solubility: 25 to 45 mg/mL (≈ 55.5 to 99.9 mM)
[3]; organic solvent or mixture, CH2Cl2/EtOH 50/50, 10° C.
  solubility: > 40 mg/mL
[3]; organic solvent or mixture, CH2Cl2/EtOH 70/30, 10° C.
  solubility: > 40 mg/mL
[3]; organic solvent or mixture, CH2Cl2/EtOH 90/10, 10° C.
  solubility: > 40 mg/mL
[3]; organic solvent or mixture, Ethanol, 25° C.
  solubility: 9 to 14 mg/mL (≈ 20 to 31.1 mM)
[3]; organic solvent or mixture, Ethyl acetate, 10° C.
  solubility: 20 to 40 mg/mL (≈ 44.4 to 88.8 mM)
[3]; organic solvent or mixture, Propan-2-ol, 10° C.
  solubility: < 25 mg/mL
[3]; organic solvent or mixture, Propan-2-ol, 50° C.
  solubility: 25 to 40 mg/mL (≈ 55.5 to 88.8 mM)

## CC1=C(O)C(=O)C=C2C1=CC=C1[C@@]2(C)CC[C@@]2(C)[C@@H]3C[C@](C)(C(=O)O)CC[C@]3(C)CC[C@]12C [Compound 1 Form II, 3-hydroxy-9β,13α-dimethyl-2-oxo-24,25,26-trinoroleana-1(10),3,5,7-tetraen-29-oic acid]
[1]
  XRPD under temperature: impact / new crystalline phase: No impact
  XRPD under relative humidity: impact / new crystalline phase: No impact
  Physical stability under the conditions tested (temperature and RH): good stability
[1]; listed as FII
  XRPD under temperature: impact / new crystalline phase: =>No new crystalline
  XRPD under relative humidity: impact / new crystalline phase: =>No new crystalline
[2]; DVS, 37° C.
  Hysteresis observed with the final mass at 50% RH: No hysteresis
  Mass decrease as the RH was lowered to 0%: ~0.08 % w/w
  Mass increase as the RH was increased to 95%: about 0.13 % w/w
  Water uptake, water sorption/desorption isotherms: < 0.2 % w/w
[2]
  DVS (hygroscopicity): non-hygroscopic
[2]; listed as FII
  DVS (hygroscopicity): Not hygroscopic
